Experimental findings from PMC3436960 (Biochemistry, 2012) are described below.

In general, Kd refers to the concentration at which binding is half-saturated. A low value points to a tighter complex. The term Km denotes the substrate concentration at which the rate is half of its maximum. The term kcat denotes the maximal rate divided by the concentration of active sites. The kcat/Km is the turnover number divided by the Michaelis constant.

Data set [1] concerns the target S. typhimurium OMP synthase (orotate phosphoribosyltransferase) (Salmonella enterica, UniProt P08870, H105A). Description: biochemical.
Data set [2] addresses S. typhimurium OMP synthase (orotate phosphoribosyltransferase) (Salmonella enterica, UniProt P08870, DEL102-102/DEL106-106). The data set is described as follows: biochemical.
Data set [3] has as its target T1, S. typhimurium OMP synthase (orotate phosphoribosyltransferase) (Salmonella enterica, UniProt P08870).
T1 sequence (P08870 2-213): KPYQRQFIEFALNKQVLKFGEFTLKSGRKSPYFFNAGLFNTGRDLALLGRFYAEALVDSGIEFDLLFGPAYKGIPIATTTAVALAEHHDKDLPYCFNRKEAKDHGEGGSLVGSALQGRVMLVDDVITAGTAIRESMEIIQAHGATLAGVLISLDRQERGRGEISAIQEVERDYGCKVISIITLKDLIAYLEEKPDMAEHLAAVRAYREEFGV
Description: equilibrium binding by centrifugal filtration.

Data set [4] deals with S. typhimurium OMP synthase (orotate phosphoribosyltransferase) (Salmonella enterica, UniProt P08870, E101A). The data set is described as follows: biochemical.
In data set [5] the target is S. typhimurium OMP synthase (orotate phosphoribosyltransferase) (Salmonella enterica, UniProt P08870, E107A). The data set is described as follows: biochemical.
The target in data set [6] is S. typhimurium OMP synthase (orotate phosphoribosyltransferase) (Salmonella enterica, UniProt P08870, K103A). The data set is described as follows: biochemical.
In data set [7] the target is S. typhimurium OMP synthase (orotate phosphoribosyltransferase) (Salmonella enterica, UniProt P08870, D104A). The data set is described as follows: biochemical.
Substrate in data set [8]: O=P(O)(O)OC[C@H]1O[C@H](OP(=O)(O)OP(=O)(O)O)[C@H](O)[C@@H]1O
Description: purified protein. Particulars: 300 μM orotate, 6 mM MgCl2, 75 mM Tris-Cl, pH 8.0, 30°C. Format: biochemical, Salmonella enterica.

Substrate in data set [9]: O=C(O)c1cc(=O)[nH]c(=O)[nH]1
The data set is described as follows: purified protein. Format: biochemical, Salmonella enterica. The settings on record: 1 mM PRPP, 6 mM MgCl2, 75 mM Tris-Cl, pH 8.0, 30°C.

Substrate in data set [10]: O=C(O)c1cc(=O)[nH]c(=O)n1[C@@H]1O[C@H](COP(=O)(O)O)[C@@H](O)[C@H]1O
Description: purified protein. The settings on record: 2 mM PPi, 3 mM MgCl2, 80 mM Tris-Cl, pH 8.0, 30°C.

Substrate in data set [11]: O=P(O)(O)OP(=O)(O)O
Description: purified protein. Particulars: 100 μM OMP, 3 mM MgCl2, 80 mM Tris-Cl, pH 8.0, 30°C.

Consider `O=C(O)c1cc(=O)[nH]c(=O)n1[C@@H]1O[C@H](COP(=O)(O)O)[C@@H](O)[C@H]1O` [OMP], for which the dissociation constant Kd in data set [1] worked out at 4 ± 0.3 µM; in data set [2] it was 2 ± 0.1 µM; in data set [3] it was 3.1 ± 0.1 µM; in [4] it was 12 ± 2 µM; in data set [5], 6.5 ± 0.8 µM; in [6], 3 ± 0.1 µM.
`O=C(O)c1cc(=O)[nH]c(=O)[nH]1` [Orotate] returned a Kd in data set [3] of 280 ± 30 µM.
In the case of `O=P(O)(O)OC[C@H]1O[C@H](OP(=O)(O)OP(=O)(O)O)[C@H](O)[C@@H]1O` [PRPP], the Kd in data set [1] came out at 92 ± 11 µM; in data set [3], 33 ± 0.5 µM; in data set [4] it was 36 ± 3 µM; in data set [5], 7.1 ± 0.5 µM; in [6], 125 ± 11 µM; in data set [7], 13 ± 0.7 µM.

B1: S. typhimurium OMP synthase (orotate phosphoribosyltransferase) (Salmonella enterica subsp. enterica serovar Typhimurium str. LT2) (protein)
chain: T1 sequence (P08870 2-213)
Regarding B1, the Km in data set [8] was 18 ± 5 µM; in data set [9], 19 ± 3 µM; in data set [10], 3 ± 0.3 µM; in data set [11] it was 31 ± 3 µM. The results for the kcat in [8], in data set [9] and in data set [11] were 56 ± 2.5 s⁻¹, 56 ± 2.5 s⁻¹ and 18 ± 0.3 s⁻¹, respectively. In addition, the values for the kcat/Km in data set [8], in data set [9] and in [11] were 3.1e+06 M⁻¹ s⁻¹, 3e+06 M⁻¹ s⁻¹ and 580000 M⁻¹ s⁻¹, respectively.
